The conditions of this series: in water.

What is called solubility (mole fraction) is the moles of solute divided by all moles in the saturated solution.

On to `O=C(O)c1ccc([N+](=O)[O-])cc1C(=O)O`, for which the solubility (mole fraction) (285.15 K) is 0.087; the solubility (mole fraction) (292.15 K) came out at 0.103; the solubility (mole fraction) (298.15 K) worked out at 0.117; the solubility (mole fraction) (306.15 K) came to 0.137; the solubility (mole fraction) (313.15 K) turned out to be 0.153; the solubility (mole fraction) (320.15 K) came out at 0.172. Moreover, the solubility (mole fraction) was 0.188 (327.15 K); 0.2 (333.15 K); 0.211 (339.15 K); 0.218 (344.15 K); 0.222 (348.15 K).
Turning to `O=C(O)c1cccc([N+](=O)[O-])c1C(=O)O`, the solubility (mole fraction) runs as follows: (285.15 K) 0.000774; (292.15 K) 0.000984; (298.15 K) 0.00141; (306.15 K) 0.00189; (313.15 K) 0.0026; (320.15 K) 0.00352. Further, the solubility (mole fraction) reads like this: (327.15 K) 0.00467; (333.15 K) 0.00581; (339.15 K) 0.00713; (344.15 K) 0.00847; (348.15 K) 0.00955.

Values taken from BigSolDB 2.1.
